From patent US4055640A, “Compositions and methods for controlling the growth of bacteria, fungi and algae using certain derivatives of N-(2,2-dichlorovinyl)salicylamides” (Nippon Kayaku Co., Ltd., priority 1975, dated 1977)

What was measured:
[1] = system: green algae; experiment: Degree of propagation on slime test boards (Example 19); format: cell-based; parameters: key: -: no propagation; +: the area of propagation is 1 - 25% on the slime test boards.; ++: the area of propagation is 26 - 50% on the slime test boards.; +++: the area of propagation is 51 - 75% on the slime test boards.; ++++: the area of propagation is 76 - 100% on the slime test boards
Description: (§1) Zero point zero two (0.02) part of active compounds in the form of 10% water soluble concentrate which was prepared by Example 13 was added into 100 parts of Waxman's liquid medium. Pieces of wood and iron (hereafter referred to as the slime test boards) were soaked into the Waxman's liquid medium. The bacteria which were gathered from circular water system were inoculated upon the Waxman's liquid medium and incubated at 27° C-34° C by shaking culture. The degree of propagation of the bacteria on the slime test boards was examined.
(§2) The growth-inhibiting activity of active compounds against the fungi and the green algae was also examined by the same method as mentioned above.
(§3) The degree of propagation of the bacteria, fungi or green algae on the slime test boards is defined in terms of the following symbols.

[2] = system: bacteria gathered from circular water system; experiment: as above; format: cell-based; parameters: key: -: no propagation; +: the area of propagation is 1 - 25% on the slime test boards.; ++: the area of propagation is 26 - 50% on the slime test boards.; +++: the area of propagation is 51 - 75% on the slime test boards.; ++++: the area of propagation is 76 - 100% on the slime test boards
Description: as §1, §2, §3

[3] = system: fungi; experiment: as above; format: cell-based; parameters: key: -: no propagation; +: the area of propagation is 1 - 25% on the slime test boards.; ++: the area of propagation is 26 - 50% on the slime test boards.; +++: the area of propagation is 51 - 75% on the slime test boards.; ++++: the area of propagation is 76 - 100% on the slime test boards
Description: as §1, §2, §3

[4] = system: Aspergillus niger; experiment: Minimum inhibitory concentration, dilution methods (Example 14); format: cell-based; details: (1) potato-dextrose agar dilution method
Excerpt: (§4) Bacteriocidal activity and fungicidal activity of the active compounds of the present invention were examined by potato-dextrose agar dilution method, [2] waxman's liquid medium dilution method or [3] glucose bouillon medium dilution method. The results are shown in Table 4 below as the minimum inhibitory concentration (the minimum concentration of active compound found to produce 100% control of the test bacteria and fungi).

[5] = system: Pseudomonas fluorescens; experiment: as above; format: cell-based; details: (1) potato-dextrose agar dilution method
Excerpt: as §4

[6] = system: Staphylococcus aureus; experiment: as above; format: cell-based; details: (3) glucose bouillon medium dilution method
Excerpt: as §4

[7] = system: Cladosporium harbarum; experiment: as above; format: cell-based; details: (1) potato-dextrose agar dilution method
Excerpt: as §4

[8] = system: Penicillium Citrinum; experiment: as above; format: cell-based; details: (1) potato-dextrose agar dilution method
Excerpt: as §4

[9] = system: Bacillus subtilis; experiment: as above; format: cell-based; details: (3) glucose bouillon medium dilution method
Excerpt: as §4

[10] = system: Escherichia coli; experiment: as above; format: cell-based; details: (3) glucose bouillon medium dilution method
Excerpt: as §4

[11] = system: Aspergillus niger, Penicillium citrinum, Cladosporium harbarum and chaetomium globosum; experiment: Degree of growth inhibition of fungi on treated beach plates (Example 17); format: cell-based; parameters: scale not given here; details: numerical rating, 2 weeks
Description: The emulsifiable concentrates which were prepared by Example 10 were diluted with water 400 times and 800 times to form emulsions.
The square plates of beach of which a side was 5 cm long and thickness was 5 mm were dipped into the emulsion for 2 minutes and dried for 24 hours at room temperature.
The square plates were placed on the surface of agar plates. The suspensions which contained spores of Aspergillus niger, Penicillium citrinum, Cladosporium harbarum and chaetomium globosum were respectively sprayed on the agar plates and the square plates.
The test fungi were cultivated in the incubator at the humidity of 95% and the temperature of 28° C for 2 weeks.
The degree of growth inhibition is defined in terms of the following numerical ratings.

[12] = system: summer orange seedlings; experiment: Phytotoxicity on summer orange seedlings (Experimental Example 6); format: in vivo; details: 1,000 ppm
[13] = system: cucumber (variety: Azumamidori); experiment: Phytotoxicity on cucumber (Experimental Example 3); format: in vivo; details: 1,000 ppm
[14] = system: Rhizoctonia solani (damping-off of cucumber); experiment: Exterminating test on damping-off of cucumber (Experimental Example 3); format: in vivo; details: 1,000 ppm, soil drench 50 ml per pot, 10 days
How it was run: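 Percentage of healthy seedlings was scored 10 days post inoculation, with PCNB 50% wettable powder run alongside as reference. Each pot held 10 Azumamidori cucumber seeds in field soil carrying 5 g Rhizoctonia solani. Soil drench: 50 ml water suspension of 80% wettable powder; greenhouse.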

[15] = system: Fusarium wilt of cucumber; experiment: Exterminating test on Fusarium wilt of cucumber (Experimental Example 4); format: in vivo, Fusarium oxysporum f, cucumerinum; details: 500 ppm, soil drench 100 ml per pot, two weeks
How it was run: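 Pots of steam-sterilized soil mixed with 20 g infested soil, sown with 18 cucumber seeds (Tokiwazibai), drenched with 100 ml aqueous suspension of 80% wettable powder. Benlate 50% wettable powder run as control. Disease scored two weeks after planting as percentage of healthy seedlings.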

[16] = system: Aspergillus niger; experiment: Growth inhibition zone around treated cotton cloth (Example 18); format: cell-based; details: emulsifiable concentrate diluted 1000 times
Description: (§5) The emulsifiable concentrates which were prepared by Example 10 were diluted with water 1000 times to form an emulsion. A cloth of cotton was soaked into each emulsion for 2 minutes. The clothes were dried at room temperature and cut into a square of which a side was 1 cm long. Each kind of test bacteria and fungi was inoculated, separately on plates of potato-agar and one square cloth was placed on each of such plates. Test bacteria and fungi were cultivated at 28° C for 4 days. The width of the region of growth-inhibition which was formed a circumference of the cloth was examined.

[17] = system: Staphylococcus aureus; experiment: as above; format: cell-based; details: emulsifiable concentrate diluted 1000 times
Description: as §5

[18] = system: Penicillium Citrinum; experiment: as above; format: cell-based; details: emulsifiable concentrate diluted 1000 times
Description: as §5

[19] = system: Bacillus subtilis; experiment: as above; format: cell-based; details: emulsifiable concentrate diluted 1000 times
Description: as §5

[20] = system: seedling blight of rice plant (pathogen Fusarium sp. and Rhizoctonia sp.); experiment: Exterminating test on seedling blight of rice plant (Experimental Example 1); format: in vivo; details: 0.25g/box a.i., 5% dust mixed with soil
How it was run: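 Pathogen-contaminated nursery soil (Fusarium sp., Rhizoctonia sp.) mixed with 5% compound dust at 5 g per box; Nihonbare rice sown, grown 7 days at 17° C in lighting chamber, then moved to field. Assessed 10 days later as percentage of healthy seedlings; commercial 4% hydroxyisoxazol dust run as control.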

SMILES: O=C(NC=C(Cl)Cl)c1ccccc1O [Compound No. 23]
- Degree of propagation ([1]; 7th day): -
- Degree of propagation ([1]; 14th day): -
- Degree of propagation ([1]; 21st day): + (the area of propagation is 1 - 25% on the slime test boards.)
- Degree of propagation ([2]; 7th day): -
- Degree of propagation ([2]; 14th day): -
- Degree of propagation ([2]; 21st day): + (the area of propagation is 1 - 25% on the slime test boards.)
- Degree of propagation ([3]; 7th day): -
- Degree of propagation ([3]; 14th day): -
- Degree of propagation ([3]; 21st day): -
- minimum inhibitory concentration [4]: 10 mc g/ml
- minimum inhibitory concentration [5]: 13 mc g/ml
- minimum inhibitory concentration [6]: 10 mc g/ml
- minimum inhibitory concentration [7]: 5 mc g/ml
- minimum inhibitory concentration [8]: 10 mc g/ml
- minimum inhibitory concentration [9]: 5 mc g/ml
- minimum inhibitory concentration [10]: 60 mc g/ml
- Degree of growth inhibition ([11]; 0.0125 %): 3
- Degree of growth inhibition ([11]; 0.025 %): 3
- Phytotoxicity [12]: Nil

SMILES: O=[N+]([O-])c1c(Cl)c(Cl)c(Cl)c(Cl)c1Cl [PCNB, pentachloronitro benzene, reference compound]
- Phytotoxicity [13]: Nil
- pest or weed control at 1000 ppm ([14]; Rhizoctonia solani, 240 h, read-out: Percentage of healthy seedlings): 45%

SMILES: O=C(NC=C(Cl)Cl)c1ccccc1[O-].O=C(NC=C(Cl)Cl)c1ccccc1[O-].[Zn+2] [compound 24]
- minimum inhibitory concentration [4]: 10 mc g/ml
- minimum inhibitory concentration [6]: 5 mc g/ml
- minimum inhibitory concentration [7]: 2.5 mc g/ml
- minimum inhibitory concentration [8]: 10 mc g/ml
- minimum inhibitory concentration [9]: 2.5 mc g/ml
- minimum inhibitory concentration [10]: 40 mc g/ml
- Percentage of healthy seedlings [15]: 47.0%
- width of the growth inhibition zone [16]: 5 mm
- width of the growth inhibition zone [17]: 8 mm
- width of the growth inhibition zone [18]: 5 mm
- width of the growth inhibition zone [19]: 10 mm
- Degree of growth inhibition ([11]; 0.0125 %): 3
- Degree of growth inhibition ([11]; 0.025 %): 3
- Percentage of healthy seedlings [14]: 100%
- Percentage of healthy seedlings [20]: 71.3%
